Test systems include COLO 205; HCT-15; HL-60; HOP-62; MDA-MB-435; MOLT-4; Malme-3M; NCI-H226; NCI-H23; OVCAR-3; PC-3; RPMI-8226; SF-268; SK-MEL-2; SW-620; U-251; UO-31; OVCAR-5.
What all share (test): DTP human tumour cell line panel, 48 h

Molecules are shown by their SMILES.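 Each compound was tested at five concentrations against cells in 96-well plates for 48 hours. Here, GI50 denotes the concentration required for 50% inhibition of growth.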 Calls of active or inactive are those of the source. Rule as the data show it: active = GI50 up to about 1.1 µM and inactive = higher.

As to `CS/C(N)=N/c1cccc2ccccc12`, the GI50 in the test on COLO 205 was > 10 µM (inactive); in the test on HCT-15, greater than 10 µM; in the test with HL-60, > 10 µM (inactive); with HOP-62, > 10 µM (inactive); in the test with MDA-MB-435, > 10 µM (inactive); in the test with MOLT-4, > 10 µM (inactive). Moreover, the GI50 in the test with Malme-3M, in the test with NCI-H226, in the test on NCI-H23, in the test on OVCAR-3, in the test on PC-3 and in the test with RPMI-8226 was > 10 µM (inactive) in each case. The GI50 with SF-268, with SK-MEL-2, in the test with SW-620, in the test on U-251 and in the test with UO-31 was > 10 µM (inactive) in each case.
For the compound `COC(=O)[C@@]12CCCC(=O)[C@@H]1[C@H]1CCCC[C@H]12`, the GI50 was > 100 µM (inactive) in the test on COLO 205; greater than 100 µM in the test with HCT-15; > 100 µM (inactive) with HOP-62; > 100 µM (inactive) with MDA-MB-435; 30.6 µM (inactive) in the test on MOLT-4; > 100 µM (inactive) in the test on Malme-3M. For the same compound, the GI50 in the test on NCI-H226, in the test with NCI-H23, in the test with OVCAR-3, in the test on OVCAR-5, in the test with PC-3 and in the test on RPMI-8226 was > 100 µM (inactive) in each case. The GI50 with SF-268, with SK-MEL-2, in the test on SW-620, in the test on U-251 and in the test on UO-31 was > 100 µM (inactive) throughout.
`CC1(C)OC(=O)C(=Cc2ccc([N+](=O)[O-])s2)C(=O)O1`: the GI50 is 16.6 µM (inactive) in the test on COLO 205; 3.18 µM in the test on HCT-15; 2.49 µM (inactive) in the test on HL-60; 18.2 µM (inactive) with HOP-62; 14.9 µM (inactive) in the test with MDA-MB-435; 8.22 µM (inactive) in the test on MOLT-4. Moreover, the GI50 was 19.2 µM (inactive) with Malme-3M; 23.5 µM (inactive) in the test with NCI-H226; 18.1 µM (inactive) in the test with NCI-H23; 10.6 µM (inactive) with OVCAR-3; 16.6 µM (inactive) in the test with OVCAR-5; 19.2 µM (inactive) in the test on PC-3. Besides, the GI50 with RPMI-8226 is 8.32 µM (inactive); in the test on SF-268, 14.7 µM (inactive); in the test on SW-620, 1.94 µM (inactive); in the test on U-251, 15.4 µM (inactive); in the test with UO-31 it was 10.8 µM (inactive).
On to `O=C(Cn1cc(-c2ccccc2)nn1)NC1CCCCC1`, for which the GI50 is > 100 µM (inactive) in the test on COLO 205; greater than 100 µM in the test with HCT-15; > 100 µM (inactive) in the test with HL-60; > 100 µM (inactive) in the test on HOP-62; > 100 µM (inactive) in the test on MDA-MB-435; > 100 µM (inactive) in the test on MOLT-4. The GI50 with Malme-3M, with NCI-H226, in the test on NCI-H23, in the test on OVCAR-5, in the test on PC-3 and in the test on RPMI-8226 was > 100 µM (inactive) each time. Further, the GI50 in the test on SF-268, in the test on SK-MEL-2, in the test on SW-620 and with U-251 was > 100 µM (inactive) throughout.
As for `N#C/C(=C\c1cccc(Br)c1)c1nc2ccccc2c(=O)[nH]1`, the GI50 with COLO 205 was > 100 µM (inactive); with HCT-15, greater than 100 µM; with HL-60, > 100 µM (inactive); in the test with HOP-62 it was 21.9 µM (inactive); with MDA-MB-435, > 100 µM (inactive); in the test with MOLT-4 it was > 100 µM (inactive). Further, the GI50 in the test on Malme-3M, with NCI-H226, with OVCAR-5, in the test with PC-3, in the test on RPMI-8226 and in the test on SF-268 was > 100 µM (inactive) in each case. Besides, the GI50 in the test on SK-MEL-2 is > 100 µM (inactive); in the test on SW-620, > 100 µM (inactive); in the test with U-251 it was 40.3 µM (inactive); with UO-31, > 100 µM (inactive).

By GI50 is commonly meant the concentration that inhibits growth by half.

The values above are taken from ChEMBL document CHEMBL1201862, “PubChem BioAssay data set” (2004).
